The values below come from patent US12162878B2 (HINOVA PHARMACEUTICALS INC., priority 2018, dated 2024).

SMILES strings stand for the structures.

Usually IC50 stands for the concentration that inhibits the measured activity by half.

Holding throughout (format): cell-based, human
Test [1] has as its system BT474 cells. The experiment in a line: Inhibition of proliferation of BT474 cells (CCK-8). The settings on record: for IC50: Homo sapiens, BT-474, 144 h, 6 days, CCK-8. How it is done: • BT474 cell line (Cell Bank of Chinese Academy of Sciences, TCHu143) • FBS (Gibco, Cat. No. 10099-141) • 0.01M PBS (Biosharp, Cat. No. 162262) • RIPM1640 (Hyclone, Cat. No. 308090.01) • Penicillin-Streptomycin (Hyclone, Cat. No. SV30010) • Cell counting kit-8 (Signalway Antibody, Cat. No. CP002) • DMSO (Sigma, Cat. No. D5879) • Centrifuge Tube, 15 ml (Excell Bio, Cat. No. CS015-0001) • Cell Culture Dish (Excell Bio, Cat. No. CS016-0128) • 96-well cell culture cluster (Corning, Cat. No. 3599) 3. Experimental Method
1) BT474 cells were subcultured in cell culture media, and the cells in good growth condition were seeded in a 96-well plate, 80 μL for each well, thus the number of cells per well was 1500, then the plate was cultured overnight in a 37° C., 5% CO2 cell incubator.
(§1) 2) The drug was prepared with dimethyl sulfoxide (DMSO) as a 10 mM stock solution. Prior to use, the solution was diluted 3 times with DMSO, and then diluted with a 3-fold gradient to obtain 9 concentration gradients. Then, each concentration of the compound was further diluted 200 times with the culture media (to ensure that DMSO concentration in the culture system was 0.1%), 2 repeat wells for each concentration. The diluted solution of each compound (20 μL) was added to the cell culture well (with a final concentration of 10 μM, 3.3 μM, 1.1 and shaken gently for mixing. In addition, three negative control wells containing only cells and three blank control wells containing only culture medium (20 μL DMSO diluted 200 times with culture medium being added to six wells) were included.
(§2) (1) After culturing for 6 days, 10 μL CCK-8 was added to each well and cultured for additional 2.5 h in a 37° C., 5% CO2 cell incubator.
(§3) (2) The absorbance (OD value) at 450 nm was measured with a multifunctional microplate reader.
(§4) (3) The data was analyzed by the Dose-response-inhibition equation in the software GraphPad Prism6, and the IC50 value was obtained.

The test system of test [2] is Vcap cells. The experiment in a line: Compound in combination with androgen receptor inhibitor HC-1119, proliferation of Vcap cells (CCK-8). The note with it: for IC50: Homo sapiens, VCaP, 144 h, 6 days, read-out: IC50 for inhibition on the activity of Vcap; for effect of combination with HC-1119 on inhibitory action on Vcap cells (in words): in combination with HC-1119, Vcap cells. How it is done:
• Vcap cell line (Cell Bank of Chinese Academy of Sciences, TCHu220) • FBS (Gibco, Cat. No. 10099-141) • 0.01M PBS (Biosharp, Cat. No. 162262) • DMEM HIGH Glucose (Hyclone, Cat. No. SH30243.01) • Penicillin-Streptomycin (Hyclone, Cat. No. SV30010) • Cell counting kit-8 (Signalway Antibody, Cat. No. CP002) • DMSO (Sigma, Cat. No. D5879) • Centrifuge Tube, 15 ml (Excell Bio, Cat. No. CS015-0001) • Cell Culture Dish (Excell Bio, Cat. No. CS016-0128) • 96-well cell culture cluster (Corning, Cat. No. 3599) 2. Experimental Method
1) Vcap cells were subcultured in cell culture media, and the cells in good growth condition were seeded in a 96-well plate, 60 μL for each well, thus the number of cells per well was 10000, then the plate was cultured overnight in a 37° C., 5% CO2 cell incubator.
2) The drug was prepared with dimethyl sulfoxide (DMSO) as a 10 mM stock solution. Prior to use, the solution was diluted 3 times with DMSO, and then diluted with a 3-fold gradient to obtain 9 concentration gradients. Then, each concentration of the compound was further diluted 200 times with the culture media (to ensure that DMSO concentration in the culture system was 0.1%), 2 repeat wells for each concentration. The diluted solution of each compound (20 μL) was added to the cell culture well (with a final concentration of 10 μM, 3.3 μM, 1.1 μM . . . ); while the solution of HC-1119 was diluted with culture media to the concentrations of 50 μM and […], respectively, and the diluted solution of HC-1119 was added to the corresponding cell culture well (with a final concentration of 10 μM, 1 μM), then shaken gently for mixing. In addition, three negative control wells containing only cells and three blank control wells containing only culture media (20 μL DMSO diluted 200 times with culture media being added to six wells) were included.
as §2, §3, §4

Test [3] has as its system Vcap cells. In words: Inhibition of proliferation of Vcap cells (CCK-8). The note with it: for IC50: Homo sapiens, 144 h, 6 days, CCK-8. How it is done: • Vcap cell line (Cell Bank of Chinese Academy of Sciences, TCHu220) • FBS (Gibco, Cat. No. 10099-141) • 0.01M PBS (Biosharp, Cat. No. 162262) • DMEM HIGH Glucose (Hyclone, Cat. No. SH30243.01) • Penicillin-Streptomycin (Hyclone, Cat. No. SV30010) • Cell counting kit-8 (Signalway Antibody, Cat. No. CP002) • DMSO (Sigma, Cat. No. D5879) • Centrifuge Tube, 15 ml (Excell Bio, Cat. No. CS015-0001) • Cell Culture Dish, (Excell Bio, Cat. No. CS016-0128) • 96-well cell culture cluster (Corning, Cat. No. 3599) 2. Experimental Method
1) Vcap cells were subcultured in cell culture media, and the cells in good growth condition were seeded in a 96-well plate, 80 μL for each well, thus the number of cells per well was 10000, then the plate was cultured overnight in a 37° C., 5% CO2 cell incubator.
as §1, with “1.1 μM . . . ),” for “1.1”
as §2, §3, §4

Setting [4] is: in combination with 1 μM HC-1119, Vcap cells.
The mark [5] stands for this setting: in combination with 10 μM HC-1119, Vcap cells.

As for `[2H]C([2H])([2H])n1cc(-c2cc(S(=O)(=O)CC)ccc2N2CCC3(CC3)C2)c2cc[nH]c2c1=O` [Compound 55, 4-(5(ethylsulfonyl)-2-(5-aza-spiro[2.4]heptan-5-yl)phenyl)-6-trideuteromethyl-1H-pyrrolo[2,3-c]pyridin-7(6H)-one], in test [1], the “inhibitory action on BT474 cells (in words)” value is given as “effective inhibitory action” and the IC50 was 0.13 µM.
Consider `[2H]C([2H])([2H])n1cc(-c2cc(S(C)(=O)=O)ccc2N2CCC3(CC2)CC3(F)F)c2cc[nH]c2c1=O` [Compound 184, 4-(2-(1,1-difluoro-6-aza-spiro[2.5]octan-6-yl)-5-(methylsulfonyl)phenyl)-6-trideuteromethyl-1H-pyrrolo[2,3-c]pyridin-7(6H)-one], for which the IC50 in test [2] (compound alone, Vcap cells) came to 0.015 µM; in test [2] (setting [4]), 0.00033 µM; in test [2] (setting [5]), 0.00013 µM; in test [3], 0.015 µM. The “effect of combination with HC-1119 on inhibitory action on Vcap cells (in words)” value in test [2] is listed as “improve the inhibitory action”. The “inhibitory action on Vcap cells (in words)” value in test [3] was “effective inhibitory action”.
Consider `[2H]C([2H])([2H])n1cc(-c2cc(NS(=O)(=O)CC)ccc2N2CCC3(CC2)CC3)c2cc[nH]c2c1=O` [Compound 41], for which half-maximal inhibition in test [1] (IC50) required 0.33 µM.
`[2H]C([2H])([2H])n1cc(-c2cc(S(C)(=O)=O)c(F)cc2N2CCC3(CC2)CC3(F)F)c2cc[nH]c2c1=O` [Compound 219, 4-(2-(1,1-difluoro-6-aza-spiro[2.5]octan-6-yl)-4-fluoro-5-(methylsulfonyl)phenyl)-6-trideuteromethyl-1H-pyrrolo[2,3-c]pyridin-7(6H)-one]: the IC50 in test [2] (compound alone, Vcap cells) worked out at 0.0176 µM; in test [2] (setting [4]), 0.00055 µM; in test [2] (setting [5]) it was 0.00018 µM; in test [3] it was 0.0176 µM. For the same molecule, the “effect of combination with HC-1119 on inhibitory action on Vcap cells (in words)” value in test [2] is recorded as “improve the inhibitory action”. The “inhibitory action on Vcap cells (in words)” value in test [3] was “effective inhibitory action”.
